System: mouse counterpart genes
Experiment: Mouse GeneChip (MG-U74A to MG-U74C) analysis of lung and trachea of the OVA antigen-exposed bronchial hypersensitivity model, S-Sal group versus S-OVA group
Type: in vivo
[1] = S-Sal group versus S-OVA group, MG-U74 chip A, 1st
[2] = S-Sal group versus S-OVA group, MG-U74 chip A, 2nd
[3] = S-Sal group versus S-OVA group, MG-U74 chip A, 3rd
[4] = S-Sal group versus S-OVA group, MG-U74 chip B, 1st
[5] = S-Sal group versus S-OVA group, MG-U74 chip B, 2nd
[6] = S-Sal group versus S-OVA group, MG-U74 chip B, 3rd
[7] = S-Sal group vs S-OVA group, 1st, chip A, P/A call A
[8] = S-Sal group vs S-OVA group, 1st, chip A, P/A call P
[9] = S-Sal group vs S-OVA group, 1st, chip B, P/A call A
[10] = S-Sal group vs S-OVA group, 1st, chip B, P/A call P
[11] = S-Sal group vs S-OVA group, 1st, chip C, P/A call P
[12] = S-Sal group vs S-OVA group, 2nd, chip A, P/A call A
[13] = S-Sal group vs S-OVA group, 2nd, chip A, P/A call P
[14] = S-Sal group vs S-OVA group, 2nd, chip B, P/A call A
[15] = S-Sal group vs S-OVA group, 2nd, chip B, P/A call P
[16] = S-Sal group vs S-OVA group, 2nd, chip C, P/A call P
[17] = S-Sal group vs S-OVA group, 3rd, chip A, P/A call A

Substance: ovalbumin [OVA antigen, ovalbumin antigen used for sensitization and inhalation to induce bronchial hypersensitivity in mice]
- Fold Change 1st, contactin 1 (mouse Probe ID 92936_at) [1]: 1.3
- Fold Change 1st, lectin, galactose binding, soluble 1 (mouse Probe ID 99669_at) [1]: 1.6
- Fold Change 1st, peptidyl arginine deiminase, type I (mouse Probe ID 95343_at) [1]: 1.3
- Fold Change 1st, peptidyl arginine deiminase, type III (mouse Probe ID 103803_at) [1]: 2.2
- Fold Change 2nd, contactin 1 (mouse Probe ID 92936_at) [2]: 1.9
- Fold Change 2nd, lectin, galactose binding, soluble 1 (mouse Probe ID 99669_at) [2]: 2
- Fold Change 2nd, peptidyl arginine deiminase, type I (mouse Probe ID 95343_at) [2]: 0.83
- Fold Change 2nd, peptidyl arginine deiminase, type III (mouse Probe ID 103803_at) [2]: 1.4
- Fold Change 3rd, contactin 1 (mouse Probe ID 92936_at) [3]: 0.44
- Fold Change 3rd, lectin, galactose binding, soluble 1 (mouse Probe ID 99669_at) [3]: 1.3
- Fold Change 3rd, peptidyl arginine deiminase, type I (mouse Probe ID 95343_at) [3]: 0.67
- Fold Change 3rd, peptidyl arginine deiminase, type III (mouse Probe ID 103803_at) [3]: 1.5
- Fold Change 1st, aquaporin 5 (mouse Probe ID 113916_at) [4]: 0.77
- Fold Change 1st, contactin 1 (mouse Probe ID 105826_at) [4]: 0.83
- Fold Change 1st, contactin 1 (mouse Probe ID 164059_f_at) [4]: 1.7
- Fold Change 2nd, aquaporin 5 (mouse Probe ID 113916_at) [5]: 0.83
- Fold Change 2nd, contactin 1 (mouse Probe ID 105826_at) [5]: 1
- Fold Change 2nd, contactin 1 (mouse Probe ID 164059_f_at) [5]: 0.91
- Fold Change 3rd, aquaporin 5 (mouse Probe ID 113916_at) [6]: 0.59
- Fold Change 3rd, contactin 1 (mouse Probe ID 105826_at) [6]: 1.1
- Fold Change 3rd, contactin 1 (mouse Probe ID 164059_f_at) [6]: 0.77
- Fold Change 1st, contactin 1 (mouse Probe ID 170177_r_at) (S-Sal group versus S-OVA group, MG-U74 chip C, 1st): 0.67
- Fold Change 2nd, contactin 1 (mouse Probe ID 170177_r_at) (S-Sal group versus S-OVA group, MG-U74 chip C, 2nd): 1.1
- Fold Change 3rd, contactin 1 (mouse Probe ID 170177_r_at) (S-Sal group versus S-OVA group, MG-U74 chip C, 3rd): 1.5
- Fold Change, AXL receptor tyrosine kinase (mouse probe 99136_at) [7]: 0.357
- Fold Change, claudin 4 (mouse probe 101410_at) [7]: 1.8
- Fold Change, histocompatibility-2 complex class I-like sequence (mouse probe 101433_at) [7]: 0.526
- Fold Change, interferon gamma inducible protein 30 (mouse probe 97444_at) [7]: 1.3
- Fold Change, interleukin 1 receptor-like 1 (mouse probe 98500_at) [7]: 1.3
- Fold Change, low density lipoprotein receptor-related protein associated protein 1 (mouse probe 161988_f_at) [7]: 1.3
- Fold Change, matrix metalloproteinase 7 (mouse probe 92917_at) [7]: 2.3
- Fold Change, met proto-oncogene (mouse probe 100309_at) [7]: 0.667
- Fold Change, phosphotidylinositol transfer protein, beta (mouse probe 102697_at) [7]: 0.303
- Fold Change, A kinase anchor protein 2 (mouse probe 101435_at) [8]: 0.833
- Fold Change, DNA segment. Chr 16. ERATO Doi 269, expressed (mouse probe 97822_at) [8]: 1
- Fold Change, DNA segment. Chr 16. ERATO Doi 269, expressed (mouse probe 97823_g_at) [8]: 1.1
- Fold Change, arachidonate 15-lipoxygenase (mouse probe 98758_at) [8]: 1.1
- Fold Change, cholesterol 25-hydroxylase (mouse probe 104509_at) [8]: 1.1
- Fold Change, claudin 5 (mouse probe 104516_at) [8]: 1.1
- Fold Change, decay accelerating factor 1 (mouse probe 103617_at) [8]: 1.2
- Fold Change, interferon-stimulated protein (20 kDa) (mouse probe 103432_at) [8]: 1
- Fold Change, low density lipoprotein receptor-related protein associated protein 1 (mouse probe 100086_at) [8]: 1.1
- Fold Change, membrane-associated protein 17 (mouse probe 96935_at) [8]: 1
- Fold Change, phosphotidylinositol transfer protein, beta (mouse probe 102696_s_at) (S-Sal group vs S-OVA group, 1st, chip A, P/A call P, counterpart of human probe 353_at): 1.3
- Fold Change, phosphotidylinositol transfer protein, beta (mouse probe 102696_s_at) (S-Sal group vs S-OVA group, 1st, chip A, P/A call P, counterpart of human probe 35017_f_at): 1.3
- Fold Change, histocompatibility 2, Q region locus 7 (mouse probe 98438_f_at) (S-Sal group vs S-OVA group, 1st, chip A, P/A call P, counterpart of human probe 37420_i_at): 1.3
- Fold Change, histocompatibility 2, Q region locus 7 (mouse probe 98438_f_at) (S-Sal group vs S-OVA group, 1st, chip A, P/A call P, counterpart of human probe 37421_f_at): 1.3
- Fold Change, A kinase (PRKA) anchor protein 10 (mouse probe 163162_at) [9]: 0.5
- Fold Change, ESTs Putative Ortholog of ISG-54K gene (mouse probe 164273_at) [9]: 1
- Fold Change, ESTs, Highly similar to AF116721 8 PRO0907 [H. sapiens] (mouse probe 114151_at) [9]: 1
- Fold Change, neurotrophic tyrosine kinase, receptor type 1 (mouse probe 110116_at) [9]: 2.5
- Fold Change, secreted end transmembrane 1 (mouse probe 115133_at) [9]: 0.435
- Fold Change, MP and activin membrane-bound inhibitor, homolog (Xanopus laevis) (mouse probe 162531_at) [10]: 1
- Fold Change, decay accelerating factor 1 (mouse probe 107626_at) [10]: 1.3
- Fold Change, viral hemorrhagic septicemia virus(VHSV) induced gene 1 (mouse probe 109385_at) [10]: 0.769
- Fold Change, cholesterol 25-hydroxylase (mouse probe 133666_at) (S-Sal group vs S-OVA group, 1st, chip C, P/A call A): 0.588
- Fold Change, deleted in bladder cancer chromosome region candidate 1 (human) Putative Ortholog (mouse probe 166806_at) [11]: 1.4
- Fold Change, interferon-induced protein with tetratricopeptide repeats 1 (mouse probe 168299_f_at) [11]: 1.3
- Fold Change, interleukin 1 receptor-like 1 (mouse probe 98501_at) (S-Sal group vs S-OVA group, 2nd, chip A): 1.8
- Fold Change, AXL receptor tyrosine kinase (mouse probe 99136_at) [12]: 0.476
- Fold Change, a disintegrin and metalloprotease domain 8 (mouse probe 103024_at) [12]: 3.4
- Fold Change, claudin 4 (mouse probe 101410_at) [12]: 3.4
- Fold Change, histocompatibility-2 complex class I-like sequence (mouse probe 101433_at) [12]: 0.625
- Fold Change, interferon gamma inducible protein 30 (mouse probe 97444_at) [12]: 1.9
- Fold Change, matrix metalloproteinase 7 (mouse probe 92917_at) [12]: 1.6
- Fold Change, met proto-oncogene (mouse probe 100309_at) [12]: 1
- Fold Change, phosphotidylinositol transfer protein, beta (mouse probe 102697_at) [12]: 0.333
- Fold Change, matrix metalloproteinase 7 (mouse probe 162318_r_at) (S-Sal group vs S-OVA group, 2nd, chip A, P/A call M): 1.7
- Fold Change, A kinase anchor protein 2 (mouse probe 101435_at) [13]: 0.833
- Fold Change, DNA segment. Chr 16. ERATO Doi 269, expressed (mouse probe 97821_at) [13]: 1
- Fold Change, DNA segment. Chr 16. ERATO Doi 269, expressed (mouse probe 97823_g_at) [13]: 1.1
- Fold Change, arachidonate 15-lipoxygenase (mouse probe 98758_at) [13]: 3.5
- Fold Change, cholesterol 25-hydroxylase (mouse probe 104509_at) [13]: 3.1
- Fold Change, claudin 5 (mouse probe 104516_at) [13]: 1.2
- Fold Change, decay accelerating factor 1 (mouse probe 103617_at) [13]: 1.5
- Fold Change, interferon-stimulated protein (20 kDa) (mouse probe 103432_at) [13]: 1.2
- Fold Change, interleukin 1 receptor-like 1 (mouse probe 98500_at) [13]: 3.4
- Fold Change, polycystic kidney disease 2 (mouse probe 100951_at) [13]: 0.667
- Fold Change, phosphotidylinositol transfer protein, beta (mouse probe 102696_s_at) (S-Sal group vs S-OVA group, 2nd, chip A, P/A call P, counterpart of human probe 353_at): 1
- Fold Change, phosphotidylinositol transfer protein, beta (mouse probe 102696_s_at) (S-Sal group vs S-OVA group, 2nd, chip A, P/A call P, counterpart of human probe 35017_f_at): 1
- Fold Change, histocompatibility 2, Q region locus 7 (mouse probe 98438_f_at) (S-Sal group vs S-OVA group, 2nd, chip A, P/A call P, counterpart of human probe 37420_i_at): 1.4
- Fold Change, histocompatibility 2, Q region locus 7 (mouse probe 98438_f_at) (S-Sal group vs S-OVA group, 2nd, chip A, P/A call P, counterpart of human probe 37421_f_at): 1.4
- Fold Change, ESTs Putative Ortholog of ISG-54K gene (mouse probe 164273_at) [14]: 1
- Fold Change, ESTs, Highly similar to AF116721 8 PRO0907 [H. sapiens] (mouse probe 114151_at) [14]: 1.2
- Fold Change, decay accelerating factor 1 (mouse probe 164905_r_at) [14]: 1
- Fold Change, neurotrophic tyrosine kinase, receptor type 1 (mouse probe 110116_at) [14]: 1.2
- Fold Change, secreted end transmembrane 1 (mouse probe 115133_at) [14]: 0.5
- Fold Change, decay accelerating factor 1 (mouse probe 107626_at) [15]: 1.6
- Fold Change, interferon gamma inducible protein 30 (mouse probe 164423_at) [15]: 4
- Fold Change, viral hemorrhagic septicemia virus(VHSV) induced gene 1 (mouse probe 109385_at) [15]: 1.7
- Fold Change, deleted in bladder cancer chromosome region candidate 1 (human) Putative Ortholog (mouse probe 166806_at) [16]: 1.5
- Fold Change, interferon-induced protein with tetratricopeptide repeats 1 (mouse probe 168299_f_at) [16]: 1.1
- Fold Change, interleukin 1 receptor-like 1 (mouse probe 98501_at) (S-Sal group vs S-OVA group, 3rd, chip A): 1
- Fold Change, AXL receptor tyrosine kinase (mouse probe 99136_at) [17]: 0.25
- Fold Change, a disintegrin and metalloprotease domain 28 (mouse probe 101723_r_at) [17]: 1.8
- Fold Change, histocompatibility-2 complex class I-like sequence (mouse probe 101433_at) [17]: 0.833
